# Results taken from patent US11185542B2, “Uses of dopamine beta-hydroxylase (DBH) inhibitors and serotonin receptor (5-HT) antagonists for the treatment of cancer” (Jiangsu Yahong Meditech Co., Ltd., priority 2016, dated 2021).
# Experiments:
# [1] = test system: H22 murine hepatocarcinoma cell line; assay: In vitro cell proliferation assay (CellTiter-Glo) in H22 murine hepatocarcinoma cell line; assay type: cell-based; conditions: for anti-proliferative effect on H22 cell line: 1 μM and 0.1, in words; for viability at 0.1 µM / viability at 1 µM: H22, 72 h; for viability at 0.1 µM: read-out: Cell viability (%), 0.1 μM, 72 h, H22 cells; for viability at 1 µM: read-out: Cell viability (%), 1 μM, 72 h, H22 cells
# Description: Methods: • (1) Cells were cultured in RPMI-1640 medium supplemented with 10% FBS, 100 U/ml penicillin, and […] streptomycin at 37° C. and 5% CO2 atmosphere. […] The anti-proliferative activity of amperozide, nepicastat, and paclitaxel was tested in the H22 murine hepatocarcinoma cell line according to the experimental procedure described in Example 1.
# [2] = clinical dosage of amperozide 10 mg/day; read-out: plasma maximal concentration (Cmax); cited from earlier work
# [3] = test system: H22 murine hepatic cancer xenograft; assay: In vivo tumor growth, H22 murine hepatic cancer xenograft model (Example 4); set-up: species or system Mouse (Mus Musculus)
# Description: (§1) Experiments using the murine H22, CT-26 and EMT-6 xenograft models were performed as described below.
# (§2) Cells were cultured in RPMI-1640 medium supplemented with 10% FBS at 37° C. in an atmosphere of 5% CO2 in air. The tumor cells were routinely subcultured three times weekly. The cells that grew in an exponential growth phase were harvested and counted for tumor inoculation.
# (§3) Mice (female, 6-8 weeks old) were inoculated subcutaneously at the right flank with the tumor cells (H22, EMT-6, or CT-26) in 0.1 mL PBS for tumor development. When the tumor volume reached approximately 60-80 mm^3, the mice were grouped randomly according to the animal body weight and tumor volume. Each group had 5-8 tumor-bearing mice.
# (§4) The major endpoint was to determine if tumor growth could be delayed or mice could be cured. Tumor volume was measured three times weekly in two dimensions using a caliper, and the volume was expressed in mm^3 using the formula: V=0.5 a×b^2, where a and b are the long and short diameters of the tumor, respectively. The T/C value (in percent) was an indication of antitumor effectiveness, where T and C were the mean volume of the treated and control groups, respectively, on a given day. The T-C value was calculated according to TV. T-C was calculated with T as the median time (in days) required for the treatment group tumors to reach a predetermined size (e.g., TV as 1000 mm^3), and C as the median time (in days) for the control group tumors to reach the same size. The body weights were measured and recorded at the same time to observe the toxicity of the compounds. The animals were sacrificed at the termination of the study.
# (§5) Summary statistics, including mean and the standard error of the mean (SEM), are provided for the tumor volume of each group at each time point. A two-way analysis of variance (ANOVA) was performed to compare body weight, tumor volume and tumor volume change. A one-way ANOVA was performed to compare tumor weight. All data were analyzed using GraphPad Prism 5. p<0.05 was considered to be statistically significant.
# The anti-cancer activity of amperozide and nepicastat was evaluated in a H22 murine hepatic cancer xenograft model according to the experimental procedure described in Example 2. Anti-cancer activity was evaluated by measuring changes in tumor volume.
# [4] = test system: H22 murine hepatic cancer xenograft; assay: In vivo tumor growth, H22 murine hepatic cancer xenograft model, compared with anti-PD-1 mAb (Example 5); set-up: species or system Mouse (Mus Musculus); conditions: p.o.; for Tumor Volume (mm^3): QD x 20 days; for T/C (%) / TGI (%) tumor growth inhibition: QD
# Description: as §1, §2, §3, §4, §5
# The anti-cancer activity of nepicastat, etamicastat and anti-PD-1 monoclonal antibody (mAb) was evaluated in a H22 murine hepatic cancer xenograft model according to the experimental procedure described in Example 2.
smiles,measurement,setting,value
"CCNC(=O)N1CCN(CCCC(c2ccc(F)cc2)c2ccc(F)cc2)CC1 [Amperozide, amperozide]",anti-proliferative effect on H22 cell line,[1],did not show any significant anti-proliferative effects
same,viability at 0.1 µM,[1]; Mus musculus,100%
same,viability at 1 µM,[1]; Mus musculus,95.1%
same,IC50,"[1]; Mus musculus, calculated from FIG. 1, read-out: IC50 in H22 murine hepatocarcinoma cells proliferation",38.8 µM
same,Cmax,[2],~100 nM
same,T-C (days) (Reach 1000 mm^3),[3]; Amperozide 2 mg/kg,2 days
same,Tumor Volume,"[3]; Amperozide 2 mg/kg, day 5",80 ± 9 mm^3
same,Tumor Volume,"[3]; Amperozide 2 mg/kg, day 7",166 ± 19 mm^3
same,Tumor Volume,"[3]; Amperozide 2 mg/kg, day 9",355 ± 36 mm^3
same,Tumor Volume,"[3]; Amperozide 2 mg/kg, day 12",576 ± 48 mm^3
same,Tumor Volume,"[3]; Amperozide 2 mg/kg, day 14",806 ± 31 mm^3
same,Tumor Volume,"[3]; Amperozide 2 mg/kg, day 16","1,219 ± 39 mm^3"
same,T/C (%),"[3]; Amperozide 2 mg/kg, day 19",64.4%
same,TGI (%) tumor growth inhibition,"[3]; Amperozide 2 mg/kg, day 19",35.6%
same,Tumor Volume,"[3]; Amperozide 2 mg/kg, day 19","1,948 ± 158 mm^3"
same,Tumor Volume,"[3]; Amperozide 2 mg/kg, day 19, listed as amperozide",1948 mm^3
same,T-C (days) (Reach 1000 mm^3),[3]; Amperozide 6 mg/kg,1 days
same,Tumor Volume,"[3]; Amperozide 6 mg/kg, day 5",80 ± 9 mm^3
same,Tumor Volume,"[3]; Amperozide 6 mg/kg, day 7",174 ± 26 mm^3
same,Tumor Volume,"[3]; Amperozide 6 mg/kg, day 9",367 ± 51 mm^3
same,Tumor Volume,"[3]; Amperozide 6 mg/kg, day 12",602 ± 77 mm^3
same,Tumor Volume,"[3]; Amperozide 6 mg/kg, day 14","1,004 ± 75 mm^3"
same,Tumor Volume,"[3]; Amperozide 6 mg/kg, day 16","1,625 ± 101 mm^3"
same,T/C (%),"[3]; Amperozide 6 mg/kg, day 19",95.9%
same,TGI (%) tumor growth inhibition,"[3]; Amperozide 6 mg/kg, day 19",4.1%
same,Tumor Volume,"[3]; Amperozide 6 mg/kg, day 19","2,903 ± 315 mm^3"
"NCCc1c[nH]c(=S)n1[C@H]1COc2c(F)cc(F)cc2C1 [Etamicastat, etamicastat]",Tumor Volume (mm^3),"[4]; Etamicastat 80 mg/kg, day 3",56.40 ± 4.21 mm^3
same,Tumor Volume (mm^3),"[4]; Etamicastat 80 mg/kg, day 6",142.74 ± 14.75 mm^3
same,Tumor Volume (mm^3),"[4]; Etamicastat 80 mg/kg, day 9",325.41 ± 39.55 mm^3
same,Tumor Volume (mm^3),"[4]; Etamicastat 80 mg/kg, day 13",437.62 ± 48.77 mm^3
same,Tumor Volume (mm^3),"[4]; Etamicastat 80 mg/kg, day 16",645.29 ± 50.41 mm^3
same,Tumor Volume (mm^3),"[4]; Etamicastat 80 mg/kg, day 19",892.56 ± 131.83 mm^3
same,Tumor Volume (mm^3),"[4]; Etamicastat 80 mg/kg, day 22",1210.52 ± 197.23 mm^3
same,Tumor Volume (mm^3),"[4]; Etamicastat 80 mg/kg, day 22, listed as etamicastat","1,210.52 mm^3"
same,T/C (%),"[4]; Etamicastat 80 mg/kg, day 22",70.42%
same,TGI (%) tumor growth inhibition,"[4]; Etamicastat 80 mg/kg, day 22",29.58%
same,Tumor Volume (mm^3),"[4]; Etamicastat 160 mg/kg, day 3",56.42 ± 3.25 mm^3
same,Tumor Volume (mm^3),"[4]; Etamicastat 160 mg/kg, day 6",134.64 ± 14.18 mm^3
same,Tumor Volume (mm^3),"[4]; Etamicastat 160 mg/kg, day 9",270.71 ± 33.96 mm^3
same,Tumor Volume (mm^3),"[4]; Etamicastat 160 mg/kg, day 13",513.74 ± 103.91 mm^3
same,Tumor Volume (mm^3),"[4]; Etamicastat 160 mg/kg, day 16",825.29 ± 198.51 mm^3
same,Tumor Volume (mm^3),"[4]; Etamicastat 160 mg/kg, day 19",1167.51 ± 300.84 mm^3
same,Tumor Volume (mm^3),"[4]; Etamicastat 160 mg/kg, day 22",1309.12 ± 492.02 mm^3
same,Tumor Volume (mm^3),"[4]; Etamicastat 160 mg/kg, day 22, listed as etamicastat","1,309.12 mm^3"
same,T/C (%),"[4]; Etamicastat 160 mg/kg, day 22",76.16%
same,TGI (%) tumor growth inhibition,"[4]; Etamicastat 160 mg/kg, day 22",23.84%
CC(=O)O[C@H]1C(=O)[C@@]2(C)[C@H]([C@H](OC(=O)c3ccccc3)[C@]3(O)C[C@H](OC(=O)[C@H](O)[C@@H](NC(=O)c4ccccc4)c4ccccc4)C(C)=C1C3(C)C)[C@]1(OC(C)=O)CO[C@@H]1C[C@@H]2O [Paclitaxel],anti-proliferative effect on H22 cell line,[1],strong inhibition effect
same,viability at 0.1 µM,[1]; Mus musculus,28.4%
same,viability at 1 µM,[1]; Mus musculus,20.8%
same,T-C (days) (Reach 1000 mm^3),[3]; Paclitaxel 15 mg/kg,2 days
same,Tumor Volume,"[3]; Paclitaxel 15 mg/kg, day 5",80 ± 9 mm^3
same,Tumor Volume,"[3]; Paclitaxel 15 mg/kg, day 7",140 ± 17 mm^3
same,Tumor Volume,"[3]; Paclitaxel 15 mg/kg, day 9",270 ± 48 mm^3
same,Tumor Volume,"[3]; Paclitaxel 15 mg/kg, day 12",435 ± 60 mm^3
same,Tumor Volume,"[3]; Paclitaxel 15 mg/kg, day 14",722 ± 105 mm^3
same,Tumor Volume,"[3]; Paclitaxel 15 mg/kg, day 16","1,188 ± 206 mm^3"
same,T/C (%),"[3]; Paclitaxel 15 mg/kg, day 19",65.5%
same,TGI (%) tumor growth inhibition,"[3]; Paclitaxel 15 mg/kg, day 19",34.5%
same,Tumor Volume,"[3]; Paclitaxel 15 mg/kg, day 19","1,982 ± 327 mm^3"
same,Tumor Volume,"[3]; Paclitaxel 15 mg/kg, day 19, listed as paclitaxel",1982 mm^3
